Among the test systems are CAKI-1 renal; HS 578T breast; SK-MEL-5 melanoma; IGROV1 ovarian; UO-31 renal; SR leukemia; NCI-H522 lung; PC-3 prostate; SF-539 CNS; HOP-92 NSCLC; T-47D breast; SF-295 CNS; HOP-62 NSCLC; SK-OV-3 ovarian; ACHN renal; K-562 leukemia; RPMI-8226 leukemia; MDA-MB-231 breast; MDA-N; CCRF-CEM leukemia.
Common to all, as to assay: inhibition of tumour cell growth, NCI panel, 48 h

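Five compound concentrations were applied to cells in 96-well plates for 48 hours; endpoints were derived by simple linear interpolation of the resulting dose-response curve. TGI marks complete inhibition of growth.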 Bounds are passed on as bounds.

Consider `CN(C)CCCNC(=O)c1c(O)c2ccccc2[nH]c1=O`, for which the TGI is over 100 µM in the assay on CAKI-1 renal; over 100 µM with HS 578T breast; over 100 µM in the assay on SK-MEL-5 melanoma; over 100 µM with IGROV1 ovarian; 58.6 µM in the assay with UO-31 renal; over 100 µM with SR leukemia. The TGI in the assay with NCI-H522 lung, with PC-3 prostate, in the assay on SF-539 CNS, in the assay on HOP-92 NSCLC, in the assay on T-47D breast and in the assay on SF-295 CNS was over 100 µM throughout. Moreover, the TGI with HOP-62 NSCLC, in the assay on SK-OV-3 ovarian, in the assay with ACHN renal, in the assay on K-562 leukemia, in the assay on RPMI-8226 leukemia and in the assay with MDA-MB-231 breast was over 100 µM each time. In addition, the TGI with MDA-N and in the assay on CCRF-CEM leukemia was over 100 µM in each case.
Turning to `O=C(O)c1n[nH][nH]c1=S`, the TGI in the assay on CAKI-1 renal, in the assay with HS 578T breast, in the assay with SK-MEL-5 melanoma, in the assay on IGROV1 ovarian, with UO-31 renal and in the assay on SR leukemia was over 100 µM in each case. The TGI in the assay with NCI-H522 lung, with PC-3 prostate, in the assay with SF-539 CNS, in the assay on HOP-92 NSCLC, in the assay on T-47D breast and in the assay on SF-295 CNS was over 100 µM in each case. The TGI in the assay with HOP-62 NSCLC, in the assay with SK-OV-3 ovarian, in the assay on ACHN renal, in the assay with K-562 leukemia, in the assay with RPMI-8226 leukemia and with MDA-MB-231 breast was over 100 µM in each case. Also, the TGI with MDA-N and in the assay with CCRF-CEM leukemia was over 100 µM each time.
In the case of `COc1ccc(OC)c(-c2nc3n(c2/C=C2/C(=O)Nc4ccccc42)CCS3)c1`, the TGI in the assay on CAKI-1 renal was over 100 µM; in the assay with HS 578T breast, over 100 µM; in the assay on SK-MEL-5 melanoma, over 100 µM; in the assay on IGROV1 ovarian it was over 100 µM; in the assay on UO-31 renal, over 100 µM; with SR leukemia, 94.4 µM. The TGI with NCI-H522 lung, with PC-3 prostate, with SF-539 CNS, with HOP-92 NSCLC, with T-47D breast and with SF-295 CNS was over 100 µM in each case. The TGI was over 100 µM with HOP-62 NSCLC; over 100 µM in the assay on SK-OV-3 ovarian; over 100 µM in the assay with ACHN renal; over 100 µM with K-562 leukemia; over 100 µM in the assay with RPMI-8226 leukemia; 92.3 µM in the assay on MDA-MB-231 breast. Besides, the TGI in the assay with MDA-N was 44.7 µM; in the assay with CCRF-CEM leukemia, over 100 µM.
On to `Cn1c(=O)c2c(nc3n(CCCCl)c(=O)ccn23)n(C)c1=O`, for which the TGI in the assay with CAKI-1 renal, with HS 578T breast, with SK-MEL-5 melanoma, in the assay with IGROV1 ovarian, with UO-31 renal and in the assay with SR leukemia was over 100 µM throughout. Also, the TGI in the assay with NCI-H522 lung, with PC-3 prostate, in the assay on SF-539 CNS, in the assay on HOP-92 NSCLC, in the assay with T-47D breast and in the assay on SF-295 CNS was over 100 µM in each case. Also, the TGI with HOP-62 NSCLC, in the assay on SK-OV-3 ovarian, in the assay on ACHN renal, in the assay with K-562 leukemia, in the assay with RPMI-8226 leukemia and in the assay on MDA-MB-231 breast was over 100 µM in each case. Also, the TGI in the assay on MDA-N and with CCRF-CEM leukemia was over 100 µM throughout.
In the case of `O=C1NCC(CSc2nc3cc(C4CCCc5c4[nH]c4ccccc54)ccc3o2)N1` (stereo not given), the TGI in the assay on CAKI-1 renal, in the assay with HS 578T breast, with SK-MEL-5 melanoma, in the assay with IGROV1 ovarian, in the assay with UO-31 renal and with SR leukemia was over 100 µM throughout. For the same molecule, the TGI is over 100 µM with NCI-H522 lung; over 100 µM with PC-3 prostate; over 100 µM in the assay with SF-539 CNS; 71.2 µM with HOP-92 NSCLC; over 100 µM in the assay with T-47D breast; over 100 µM in the assay on SF-295 CNS. Also, the TGI with HOP-62 NSCLC, in the assay with SK-OV-3 ovarian, in the assay on ACHN renal, in the assay on K-562 leukemia, in the assay on RPMI-8226 leukemia and in the assay on MDA-MB-231 breast was over 100 µM each time. The TGI in the assay with MDA-N and in the assay on CCRF-CEM leukemia was over 100 µM throughout.
On to `Cc1ccc([N+](=O)[O-])cc1S(=O)(=O)Nc1ccc(C2=NOC(c3ccco3)C2)cc1` (stereo not given), for which the TGI with CAKI-1 renal is 70.4 µM; with HS 578T breast, over 100 µM; in the assay with SK-MEL-5 melanoma, 27.7 µM; in the assay on IGROV1 ovarian, 84.4 µM; with UO-31 renal, 32.8 µM; in the assay with SR leukemia it was 23.8 µM. For the same molecule, the TGI in the assay with NCI-H522 lung is 32.7 µM; in the assay on PC-3 prostate, 40.5 µM; in the assay on SF-539 CNS, 68.3 µM; in the assay on HOP-92 NSCLC, 88.9 µM; with T-47D breast, 89.4 µM; in the assay on SF-295 CNS, 46.5 µM. The TGI with HOP-62 NSCLC turned out to be 30.8 µM; in the assay on SK-OV-3 ovarian, 97.4 µM; in the assay with ACHN renal it was 49 µM; in the assay on K-562 leukemia, 59.3 µM; in the assay with RPMI-8226 leukemia, 96.8 µM; in the assay on MDA-MB-231 breast, 33.1 µM. Further, the values for the TGI in the assay with MDA-N and with CCRF-CEM leukemia were 31.5 µM and over 100 µM, respectively.
For the molecule `O=C1C(N2CCN(c3ccccn3)CC2)=C(Cl)C(=O)c2ncccc21`, the TGI with CAKI-1 renal was 2.12 µM; in the assay on HS 578T breast, over 10 µM; with SK-MEL-5 melanoma it was 3.27 µM; in the assay with IGROV1 ovarian, over 10 µM; in the assay with UO-31 renal, over 5.53 µM; in the assay with SR leukemia, over 6.21 µM. Further, the TGI in the assay with NCI-H522 lung is 1.03 µM; in the assay on PC-3 prostate, over 10 µM; in the assay with SF-539 CNS, over 10 µM; with HOP-92 NSCLC, 2.94 µM; in the assay on T-47D breast, 4.09 µM; in the assay on SF-295 CNS, over 10 µM. Further, the TGI was over 10 µM in the assay with HOP-62 NSCLC; over 10 µM with SK-OV-3 ovarian; 4.91 µM in the assay on ACHN renal; over 10 µM in the assay with K-562 leukemia; 1.87 µM in the assay with RPMI-8226 leukemia; over 7.14 µM with MDA-MB-231 breast. Further, the TGI was 3.08 µM with MDA-N and 6.28 µM in the assay on CCRF-CEM leukemia.

Values taken from PubChem BioAssay (NCI).
